According to paper PMC9596850, “Tonsillar Microbiome‐Derived Lantibiotics Induce Structural Changes of IL‐6 and IL‐21 Receptors and Modulate Host Immunity” (Advanced Science, 2022):
Peptide text beside a SMILES is read from it.

Key:
[1] = tested on: collagen‐induced arthritis (CIA) model mice; experiment: Collagen‐induced arthritis (CIA) mice, prophylactic regimen; format: in vivo, DBA/1 mice; details: prophylactic administration in CIA mice
Experimental: Male DBA/1 mice (6–8 weeks old) were purchased from Huafukang Co. Ltd. (Beijing, China) and fed under specific pathogen‐free conditions. All experiments were carried out in accordance with guidelines prescribed by the Animal Care and Use Committee of Peking University People's Hospital (2019PHE047). CIA induction was established by following a previously published protocol.^[ [41] ^] Briefly, DBA/1 mice were immunized intradermally at the base of the tail with 200 µg of bovine type II collagen (CII, Chondrex) emulsified in complete Freund's adjuvant (Sigma‐Aldrich, St Louis, MO, USA) in equal volumes. Three weeks later, a booster was delivered using 100 µg CII emulsified in Freund's incomplete adjuvant. Mice were monitored for signs of arthritis after the booster immunization. Clinical score was assessed by using the following system as detailed previously:^[ [41] ^] […]
The paws from each mouse were collected and fixed in 4% paraformaldehyde (PFA) for 48 h, then scanned using a Micro‐CT scanner (Quantum FX, Caliper, USA). […] A microscopic assessment of sagittal sections was performed and histopathological changes were scored based on the following previously reported parameters:^[ [42] ^] […]

[2] = target: T1, murine IL‐21R (Mus musculus, UniProt Q9JHX3); experiment: SPR binding to immobilized murine IL‐21R
T1 construct: Fc region of human IgG1 (C); purchased Sino Biological
Experimental: The binding affinities of salivaricins to IL‐6Rα or IL‐21R were assayed using the Biacore 8K instrument (GE Healthcare). Murine IL‐6Rα (20 nM, abcam) or IL‐21R ([…], Sino Biological) were immobilized on a CM5 sensor chip using standard amine‐coupling at 25 °C with PBS‐P running buffer (GE Healthcare), as described previously.^[ [39] ^] […] Regeneration was achieved by extended washing with NaOH (5 mm) after each sample injection. The dissociation constants (KD) of salivaricins were obtained by fitting the data sets to steady‐state affinity model using Biacore 8K Evaluation Software.

[3] = Table S4, immobilized mIL-21R, Steady state affinity model

T1 sequence (Q9JHX3 20-529): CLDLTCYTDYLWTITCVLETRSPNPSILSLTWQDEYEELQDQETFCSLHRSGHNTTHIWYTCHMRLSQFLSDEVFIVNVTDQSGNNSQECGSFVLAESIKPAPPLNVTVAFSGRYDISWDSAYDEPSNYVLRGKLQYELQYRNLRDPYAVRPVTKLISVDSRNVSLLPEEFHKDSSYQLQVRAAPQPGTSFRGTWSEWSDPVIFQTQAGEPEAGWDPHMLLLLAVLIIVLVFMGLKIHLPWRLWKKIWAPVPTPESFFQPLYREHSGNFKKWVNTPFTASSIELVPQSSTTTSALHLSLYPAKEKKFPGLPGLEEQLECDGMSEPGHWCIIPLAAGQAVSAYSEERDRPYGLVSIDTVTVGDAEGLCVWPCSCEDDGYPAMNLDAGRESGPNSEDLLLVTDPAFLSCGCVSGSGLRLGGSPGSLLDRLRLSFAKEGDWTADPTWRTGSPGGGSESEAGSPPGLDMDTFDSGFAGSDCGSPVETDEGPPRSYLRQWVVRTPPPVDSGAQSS

Structure (SMILES) | body weight [1] | Kd ([2]; Figure 5D legend, mutant experiment, analyte 12.5–800 µM, immobilized murine IL‐21R 20 nM) [µM] | Kd [2, 3] [µM] | Kd ([2]; Figure S8D, salivaricin B mutant experiment, analyte 12.5-800, immobilized murine IL-21R 20 nM) [µM]
CC[C@H](C)[C@H](NC(=O)[C@@H](NC(=O)[C@H](C)NC(=O)[C@H](Cc1ccccc1)NC(=O)[C@H](Cc1c[nH]c2ccccc12)NC(=O)CNC(=O)[C@@H](NC(=O)CNC(=O)[C@H](CCCNC(=N)N)NC(=O)[C@@H](N)CCCCN)[C@@H](C)O)[C@@H](C)O)C(=O)N[C@H](C(=O)N[C@@H](CC(=O)O)C(=O)N[C@@H](CC(=O)O)C(=O)N[C@@H](CS)C(=O)N1CCC[C@H]1C(=O)N[C@@H](CC(N)=O)C(=O)N[C@@H](CO)C(=O)N[C@H](C(=O)N[C@@H](Cc1ccccc1)C(=O)N[C@H](C(=O)N[C@@H](CS)C(=O)N[C@@H](CS)C(=O)O)C(C)C)C(C)C)[C@@H](C)O [salivaricin A2] (H-KRGTGWFATITDDCPNSVFVCC-OH) | without affecting body weight | 29.4 | 12.6 | 
CC[C@H](C)[C@H](NC(=O)[C@@H](NC(=O)CNC(=O)CNC(=O)CN)C(C)C)C(=O)N[C@@H](CCC(N)=O)C(=O)N[C@H](C(=O)N[C@H](C(=O)N[C@@H](CO)C(=O)N[C@@H](Cc1c[nH]cn1)C(=O)N[C@@H](CCC(=O)O)C(=O)N[C@@H](CS)C(=O)N[C@@H](CCCNC(=N)N)C(=O)N[C@@H](CCSC)C(=O)N[C@@H](CC(N)=O)C(=O)N[C@@H](CO)C(=O)N[C@@H](Cc1c[nH]c2ccccc12)C(=O)N[C@@H](CCC(N)=O)C(=O)N[C@@H](Cc1ccccc1)C(=O)N[C@@H](CC(C)C)C(=O)N[C@@H](Cc1ccccc1)C(=O)N[C@H](C(=O)N[C@@H](CS)C(=O)N[C@@H](CS)C(=O)N[C@@H](CO)C(=O)O)[C@@H](C)O)[C@@H](C)CC)[C@@H](C)O [salivaricin B] (H-GGGVIQTISHECRMNSWQFLFTCCS-OH) | without affecting body weight |  | 10.1 | 12.6
